The source of these data is patent US6204282A, “Benzimidazole compounds that are vitronectin receptor antagonists” (Schering Corporation, priority 1999, dated 2001).

In one assay the target is T1, αvβ3 receptor (Homo sapiens, UniProt P05106+P06756).
T1 construct: αvβ3 receptor (purified from human placenta); from tissue; host or cells: human placenta
Kind of assay: competition radioligand binding assay, 125I-echistatin to purified αvβ3 receptor. The following applies: inhibition of specific binding of 125I-echistatin (0.05 nM), 3 hour incubation at room temperature.

A further assay has as its target αllbβ3 receptor (Homo sapiens, UniProt P05106+P08514). Kind of assay: similar competitive assay with purified αllbβ3 receptor and 125I-echistatin (specificity index versus αvβ3). The following applies: IC50 αllbβ3 / IC50 αvβ3. The assay is classed as binding. The text has this:
The specificity index, which is a measure of the relative binding affinity for αvβ3 versus αllbβ3, may be determined by dividing the IC50 value for αllbβ3by the IC50 value for αvβ3.

`O=C(N[C@@H](CNC(=O)c1ccc(CNCc2nc3ccccc3[nH]2)cc1)C(=O)O)OCc1ccccc1` [Example 5-1] yielded an IC50 at αvβ3 receptor of 5.4 nM. On the same count and under the same terms, the figure for `O=C(N[C@@H](CNC(=O)c1ccc(CN(Cc2nc3ccccc3[nH]2)C(=O)c2ccc(Cl)cc2)cc1)C(=O)O)OCc1ccccc1` [Example 5-2] is 6.5 nM. With `CC(=O)N(Cc1ccc(C(=O)NC[C@H](NC(=O)OCc2ccccc2)C(=O)O)cc1)Cc1nc2ccccc2[nH]1` [Example 5-3], the IC50 at αvβ3 receptor is 1.9 nM.

In the case of `O=C(N[C@@H](CNC(=O)c1ccc(CN(Cc2nc3ccccc3[nH]2)C(=O)c2ccc3c(c2)OCO3)cc1)C(=O)O)OCc1ccccc1` [Example 5-4], on αvβ3 receptor, the IC50 came to 2.9 nM. The same measure, in the same setting: then `COCC(=O)N(Cc1ccc(C(=O)NC[C@H](NC(=O)OCc2ccccc2)C(=O)O)cc1)Cc1nc2ccccc2[nH]1` [Example 5-5], with 0.42 nM; and `O=C(N[C@@H](CNC(=O)c1cccc(CNCc2nc3ccccc3[nH]2)c1)C(=O)O)OCc1ccccc1` [Example 5-6], with around 500 nM; and `O=C(N[C@@H](CNC(=O)c1cccc(CN(Cc2nc3ccccc3[nH]2)C(=O)c2ccc(Cl)cc2)c1)C(=O)O)OCc1ccccc1` [Example 5-7], with around 500 nM. Take `CC(=O)N(Cc1cccc(C(=O)NC[C@H](NC(=O)OCc2ccccc2)C(=O)O)c1)Cc1nc2ccccc2[nH]1` [Example 5-8]: the IC50 on αvβ3 receptor is around 500 nM. Molecule `O=C(N[C@@H](CNC(=O)c1cccc(CN(Cc2nc3ccccc3[nH]2)C(=O)c2ccc3c(c2)OCO3)c1)C(=O)O)OCc1ccccc1` [Example 5-9] returned an IC50 at αvβ3 receptor of around 500 nM. The same measure, in the same setting: the figure for `COCC(=O)N(Cc1cccc(C(=O)NC[C@H](NC(=O)OCc2ccccc2)C(=O)O)c1)Cc1nc2ccccc2[nH]1` [Example 5-10] is around 500 nM. Molecule `CCCC(=O)N(Cc1ccc(C(=O)NC[C@H](NC(=O)OCc2ccccc2)C(=O)O)cc1)Cc1nc2ccccc2[nH]1` [Example 5-11] gave an IC50 on αvβ3 receptor of 3.4 nM. In addition, at αllbβ3 receptor, the “SPECIFICITY αIIb β3/αvβ3 (specificity index)” value is 70. Consider `O=C(N[C@@H](CNC(=O)c1ccc(CN(Cc2nc3ccccc3[nH]2)C(=O)C(F)(F)F)cc1)C(=O)O)OCc1ccccc1` [Example 5-12], for which, at αvβ3 receptor, the IC50 is 5.6 nM. The “SPECIFICITY αIIb β3/αvβ3 (specificity index)” value at αllbβ3 receptor came out at 87. For `CC(C)NC(=O)N(Cc1ccc(C(=O)NC[C@H](NC(=O)OCc2ccccc2)C(=O)O)cc1)Cc1nc2ccccc2[nH]1` [Example 5-30], in that order: 2.3 nM and 296. For `CN(C)C(=O)N(Cc1ccc(C(=O)NC[C@H](NC(=O)OCc2ccccc2)C(=O)O)cc1)Cc1nc2ccccc2[nH]1` [Example 5-41], in that order: 2.8 nM and 19.
